The test system of data set [1] is Escherichia coli IFO 12734. Kind of data set: Antibacterial activity, agar plate dilution method: E. coli IFO 12734. It counts as cell-based. The settings on record: Mueller-Hinton agar, 10^6 cells/ml, 37° C., 18 to 24 hours. The method, then:
(§1) Antibacterial activity of the present compound was examined by agar plate dilution method while following the standard method of Japan Society of Chemotherapy and using the following strain: 1. Escherichia coli IFO 12734 Namely, after inoculating each bacteria on Mueller-Hinton culture medium, the inoculum was incubated for 18 to 48 hours at 37° C. and after adjusting the number of cells of each bacteria so as to contain 10^6 in one ml, the thus prepared specimen was used as the test bacterial liquid. Each of the present substances (the substance in Example 1 and the substance in Example 2) was dispersed in aqueous physiological saline solution at a predetermined concentration and the thus prepared dispersion was added to 9 times by volume of the culture medium for examining sensitivity (Mueller-Hinton culture medium) to prepare agar plates. On each agar plate, each of the test bacterial liquid was smeared at a width of about 2 cm, and the thus smeared agar plate was incubated for 18 to 24 hours at 37° C.

Data set [2] concerns Staphylococcus aureus IAM 1011. As to the kind of experiment: Antibacterial activity, agar plate dilution method: S. aureus IAM 1011. The class given is cell-based. The settings on record: Mueller-Hinton agar, 10^6 cells/ml, 37° C., 18 to 24 hours. The method, then:
as §1, with “2. Staphylococcus aureus IAM 1011” for “1. Escherichia coli IFO 12734”

Data set [3] relates to Serratia marcescens IAM 1223. As to the kind of experiment: Antibacterial activity, agar plate dilution method: S. marcescens IAM 1223. The class given is cell-based. The settings on record: Mueller-Hinton agar, 10^6 cells/ml, 37° C., 18 to 24 hours. The method, then: as §1, with “6. Serratia marcescens IAM 1223” for “1. Escherichia coli IFO 12734”
Data set [4] deals with bacteria (strains of Table 3). As to the kind of experiment: Antibacterial activity, agar plate dilution method, overall. It counts as cell-based. The settings on record: as seen from Table 3. The method, then:
Antibacterial activity of the present compound was examined by agar plate dilution method while following the standard method of Japan Society of Chemotherapy and using the following strain:
2. Staphylococcus aureus IAM 1011
3. Escherichia coli W 3636
4. Proteus vulgaris IAM 1025
5. Pseudomonas aeruginosa IAM 1514
6. Serratia marcescens IAM 1223
Namely, after inoculating each bacteria on Mueller-Hinton culture medium, the inoculum was incubated for 18 to 48 hours at 37° C. and after adjusting the number of cells of each bacteria so as to contain 10^6 in one ml, the thus prepared specimen was used as the test bacterial liquid.
Each of the present substances (the substance in Example 1 and the substance in Example 2) was dispersed in aqueous physiological saline solution at a predetermined concentration and the thus prepared dispersion was added to 9 times by volume of the culture medium for examining sensitivity (Mueller-Hinton culture medium) to prepare agar plates.
On each agar plate, each of the test bacterial liquid was smeared at a width of about 2 cm, and the thus smeared agar plate was incubated for 18 to 24 hours at 37° C.

The subject of data set [5] is Staphylococcus aureus IAM 1011. As to the kind of experiment: in vitro. The class given is in vitro ADME. The method, then: As a model experiment for verifying the stability of the present compound in Example 1 in the living body, the following procedures were adopted. The same test solution of the present compound as in Example 6 was prepared by mixing 0.1 ml of the dispersion of the present compound and 0.9 ml of S-9 mix, and shaking the mixture for 20 min at 37° C. As a control, a mixture of 0.1 ml of the dispersion of the present compound and 0.9 ml of the 0.2M phosphoric acid buffer was shaken for 20 min at 37° C. As the test bacteria, Staphylococcus aureus IAM 1011 was inoculated in Mueller-Hinton culture medium, and after incubating the inoculum for 18 hours at 37° C., the number of bacteria in the medium was adjusted to 10^8 /ml and the thus adjusted, cultured medium was mixed with 50 times by volume of Mueller-Hinton culture medium. After preparing an agar plate from the mixture, a penicillin cup of 8 mm in diameter was placed on the agar plate, and 0.1 ml of the test solution prepared above was put into the cup. After leaving the thus prepared agar plate for 2 hours at 4° C., the agar plate was subjected to culture for 18 hours at 37° C. to measure the diameter of a proliferation-inhibiting circle appearing on the agar plate. From a calibration curve preliminarily prepared between the concentration of the present compound and the diameter of the proliferation-inhibiting circle, the concentration of the present compound in the test solution and the control was obtained. By using the thus obtained concentration, the rate of retaining the antibacterial activity (Rate (%)) was calculated from the following formula and is shown in Table 5. [formula] As a comparative experiment, the same precedures were carried out except for using Cefotax (a commercialized cephalosporin derivative sold by CHUGAI Pharmaceuticla Co., Ltd., which is represented by the following formula), [drawing 21] instead of the present compound produced in Example 1.

For data set [6], the system named is Escherichia coli IFO 12734. Kind of data set: Therapeutic effect on the experimental infectious disease on mice. The class given is in vivo, Escherichia coli (infected ddY-SPF mice). The text has this:
Therapeutic effect of the present compounds on the infection was examined as follows.

Each structure is given as a SMILES string.

As for `CO/N=C(\C(=O)N[C@@H]1C(=O)N2C(C(=O)OCOC(=O)C(C)(C)C)=C(CSc3nnc(C)s3)CS[C@H]12)c1csc(NC(=O)C(Cl)Cl)n1` [Example 2], the “minimal inhibitory concentration (MIC), E. coli IFO 12734” value in data set [1] was 50. In addition, the “minimal inhibitory concentration (MIC), S. aureus IAM 1011” value in data set [2] was at least 100. The “minimal inhibitory concentration (MIC), S. marcescens IAM 1223” value in data set [3] was at least 100. For the same compound, the “antibacterial activity (in words)” value in data set [4] was “shows a low antibacterial activity”. Moreover, the “Rate of retaining the antibacterial activity (in words)” value in data set [5] was “the same result as that obtained in using the present compound produced in Example 1”. Moreover, the “survival 7 days after inoculation” value in data set [6] (25 mg/kg orally, 1 time, 1 hour after intraperitoneal inoculation of 1.4×10^3 cells, all untreated mice died on the second day) was “all the mice administered with the present compound survived”.

For the compound `CO/N=C(\C(=O)N[C@@H]1C(=O)N2C(C(=O)O)=C(CSc3nnc(C)s3)CS[C@H]12)c1csc(NC(=O)C(Cl)Cl)n1` [Example 1, 7β-[2-(2-dichloroacetamido-4-thiazolyl)-(Z)-2-methoxyiminoacetamido]-3-[(2-methyl-1,3,4-thiadiazol-5-yl)thiomethyl]-3-cephem-4-carboxylic acid], the “minimal inhibitory concentration (MIC), E. coli IFO 12734” value in data set [1] is recorded as 0.1. Also, the “minimal inhibitory concentration (MIC), S. aureus IAM 1011” value in data set [2] was found to be 0.78. Moreover, the “minimal inhibitory concentration (MIC), S. marcescens IAM 1223” value in data set [3] is on record as 0.4. The “antibacterial activity (in words)” value in data set [4] was “shows an antibacterial activity”. In data set [5], the “Rate of retaining the antibacterial activity (in words)” value is given as “superior to a conventional commerciallized cephalosporin derivative”. The “survival 7 days after inoculation” value in data set [6] (intravenous administration, dose not given) is “All the ddY-SPF mice administered with the present compound produced in Example 1 via intravenation survived”.

For the origin of these results see US4734409A, “Cephalosporin derivative, process for producing the same and pharmaceutical composition containing the same” (Kureha Kagaku Kogyo Kabushiki Kaisha, priority 1984, dated 1988).
